Data set [1] can be described thus: Photofrin concentration and PDT dose at pleural cavity sites measured by fluorescence with 4-channel PDT dose dosimeter during Photofrin-mediated pleural PDT. To be noted: for Mean Photofrin concentration: local tissue concentration per patient and pleural site, Photofrin 2 mg kg^−1 i.v. 24 h before PDT, mean ± SD of smoothed values. The data set is classed as in vivo, human. The procedure:
The patients in this study were enrolled in a Phase II randomized clinical trial of Photofrin-mediated PDT for pleural mesothelioma treatment. Having given informed consent, they were administered Photofrin (Pinnacle Biologics, Chicago, IL, USA) at 2 mg kg^−1 of body weight as an intravenous infusion 24 h prior to intra-operative PDT. PDT was performed in the operating room, immediately following radical pleurectomy and debulking of tumor. PDT treatment was performed with 632 nm light provided by a KTP-pumped dye laser (model 630 XP, Laserscope, Inc., San Jose, CA, USA) to a total fluence of 60 J cm^−2. Light was delivered to the pleural cavity via an optical fiber inserted into modified endotracheal tube filled with 0.1% intralipid to produce an extended isotropic light source. The pleural cavity was filled with 0.01% intralipid solution during PDT treatment. As the intralipid solution became contaminated with blood as observed by the treating physician, it was repeatedly removed by suction pump and replaced with fresh solution to minimize light absorption by hemoglobin. The light source was circulated around in the lung cavity by the physician during the PDT. The instantaneous light fluence rate and the cumulative light dose were monitored continuously using 8 isotropic detectors (Medlight, Switzerland) sutured to 8 strategic locations within the pleural cavity wall. […] Each spectrometer has wavelength range of 200 nm-1050 nm and resolution of 0.42 nm using a diode array of 2048×1 elements and 14 μm×200 μm per element. The spectral resolution achieved was 0.47 nm. Isotropic detectors 9 to 12 were connected to the multichannel dosimetry system only. The dosimetry system records light fluence rate using photodiodes. Light fluence rate at surface is measured directly with an isotropic detector placed on the surface. The measured light fluence rate is not reflective of intra-tissue light fluence rate, which may be higher or lower than the value on the tissue surface depending on the tissue optical properties. Fluorescence collected by the fibers was collimated and passed through long pass filters (Semrock, Inc., Rochester, NY, USA) to block the treatment light before the transmitted fluorescence was recorded by the spectrometers, whereas no filtration was required for the treatment-light signal in the other arm of the bifurcated fibers. The front view and the schematic diagram of the system setup are shown in FIGS. 1A-B. There are 16 channels on the system enclosure as shown in FIG. 1A. Channels 9 to 16 (top row) are connected to the dosimetry system only whereas Channels 1 to 4 (bottom row) are connected to both the dosimetry system and the spectrometers. Channels 5 to 8 (bottom row) are currently not used. In this study, Channels 1 to 4 are used to measure fluence rate of the treatment light and Photofrin fluorescence concurrently, while Channel 9 to 12 are used to measure light fluence rate only.
Diffuse reflectance measurements were acquired before and after PDT treatment using a specially designed fiber optic-based contact probe comprising (e.g., or consisting of) one source fiber, coupled to an air-cooled quartz-tungsten-halogen (QTH) lamp (Avalight HAL-S, Avantes, Inc., Louisville, CO, USA), and 9 detection fibers spaced at distances from 1.4 to 8.7 mm from the source. Measurements were made with the probe in contact with the interior surface of the pleural cavity. The reflected light was collected by the detection fibers which are imaged via a spectrograph onto a CCD, to measure radially-resolved diffuse reflectance. Background signal was measured in the same tissue with the white light source turned off, and then subtracted from each measurement. Each tissue spectrum is divided by the spectrum obtained with the same light source and detector in an integrating sphere to account for the wavelength-dependence of the white light source power and CCD response. […]

Data set [2] has as its system radiation-induced fibrosarcoma (RIF) tumors. To be noted: larger tumors; cited from earlier work.
The mark [3] stands for this setting: 22 sites, 8 patients, 2 mg kg^−1.

Where “and” joins values, the source holds several entries; their conditions need not be identical. Equal entries are not always repeated.

In the case of Photofrin, in data set [1] (setting [3]), the “mean of the local Photofrin concentrations measured from all sites” value came to 3.94±2.01 mg kg 1. Moreover, the “median of the local Photofrin concentrations measured from all sites” value in data set [1] (setting [3]) is 3.37 ± 2.01 mg/kg. Further, the “Mean Photofrin concentration” value in data set [1] (pleural site ACW) was 2.80 ± 0.27 mg/kg and 9.38 ± 0.57 mg/kg; in data set [1] (pleural site AS) it was 3.22 ± 0.35 mg/kg; in data set [1] (pleural site Apex), 4.71 ± 0.15 mg/kg and 3.12 ± 0.35 mg/kg and 1.13 ± 0.02 mg/kg and 3.27 ± 0.71 mg/kg and 7.19 ± 0.92 mg/kg and 4.56 ± 0.45 mg/kg; in data set [1] (pleural site PCW) it was 3.47 ± 0.42 mg/kg and 1.47 ± 0.20 mg/kg and 1.58 ± 0.21 mg/kg and 5.23 ± 0.47 mg/kg and 2.32 ± 0.23 mg/kg; in data set [1] (pleural site PM), 5.65 ± 0.67 mg/kg and 3.62 ± 0.61 mg/kg and 6.81 ± 0.35 mg/kg; in data set [1] (pleural site PS) it was 2.94 ± 0.12 mg/kg and 3.01 ± 0.05 mg/kg and 5.73 ± 0.24 mg/kg and 3.54 ± 0.16 mg/kg. For the same substance, the “Mean Photofrin concentration” value in data set [1] (pleural site Peri) is 1.87 ± 0.31 mg/kg. Besides, in data set [1] (patient #020, same administered dose 2 mg kg^−1), the “difference of local sensitizer concentrations within the same patient” value came out at 2.9 times. The “difference of local sensitizer concentrations between patients” value in data set [1] (patients #016 and #018, same administered dose 2 mg kg^−1) stood at 8.3 times. For the same substance, the “PDT dose threshold from previous study” value in data set [2] is reported as 1200 mM J/cm^2.

The record behind these values is US12324927B2, “Methods and systems for photodynamic therapy calculations” (THE TRUSTEES OF THE UNIVERSITY OF PENNSYLVANIA, priority 2018, dated 2025).
